# Experimental data from publication PMC10813298, “Evidence of Guanidines Potential against Leishmania (Viannia) braziliensis: Exploring In Vitro Effectiveness, Toxicities and of Innate Immunity Response Effects” (Biomolecules, 2023).
# Entries after “also recorded” stand apart in the source; their conditions may differ. Read-outs that look alike come from different tables or passages of the source.
# What was measured:
# [1] = Cytotoxicity against RAW 264.7 macrophages (MTT); assay type: cell-based, murine; conditions: mouse, RAW 264.7 macrophages, pH 7.2, RAW 264.7 cells
# Experimental: (§1) Murine macrophage cell line RAW 264.7 was used in this study. The cells were cultured in 75 cm^2 cell culture flasks (Corning Glass Workers, New York, NY, USA) using DMEM medium with a pH of 7.2, supplemented with 10% FBS and 1% antibiotic solution (containing 100 U/mL penicillin and 100 μg/mL streptomycin). The cells were maintained in an incubator at a temperature of 37 °C with 5% CO2. The spikes were performed after the cells reached complete confluence, characterized by the formation of a monolayer of cells around 48 h to 72 h after packaging.
# (§2) In this study, we utilized the RAW 264.7 macrophages line (obtained from ATCC: code TIB-71™),human embryonic kidney cell line HEK-293 (obtained from ATCC: code CRL-1573™)and two human cancer cell cultures: the colon carcinoma cell line CaCo-2 and the adenocarcinomic human alveolar basal epithelial cell A549 (also obtained from ATCC: codesHTB-37™ and CCL-185™).These cell lines were cultured in Dulbecco’s modified Eagle medium (DMEM) from Gibco by Life Technologies (LifeTech Austria, Vienna, Austria). The growth medium was supplemented with 5% fetal bovine serum (FBS) from Gibco by Life Technologies and 1% penicillin-streptomycin obtained from Sigma-Aldrich (Vienna, Austria). The cells were maintained at 37 °C with 5% CO2 in a humidified incubator, and regular checks for mycoplasma contamination were carried out.
# (§3) For experimental purposes, the cells were seeded into 96-well plates at a density of 2 × 10^4 cells/mL, with each well containing 100 µL of the cell suspension. The cells were allowed to adhere for 24 h. Subsequently, they were exposed to 100 µL of the test compounds, which were diluted in DMEM, with concentrations ranging from 2 to 600 µmol/L. The stock solutions of these compounds were prepared in water with 10% (v/v) dimethyl sulfoxide (DMSO) and stored at 4 °C.
# (§4) To assess cell viability after 72 h of exposure to the compounds, we employed a 3-(4,5-dimethylthiazol-2-yl)-2,5-diphenyltetrazolium bromide (MTT)-based vitality assay kit (EZ4U, Biomedica, Vienna, Austria). Briefly, we added 20 µL of the EZ4U assay solution to each well and incubated the plates in the dark for 2 h. Subsequently, we measured the absorbance using a microplate reader at 450 nm, with 620 nm as a reference to reduce unspecific background values. For reliability, all experiments were conducted three times with triplicate samples.
# (§5) The different mean concentrations for promastigotes (IC50) and macrophages (CC50) were calculated using nonlinear regression. For comparisons between groups, ANOVA analysis of variance was performed followed by Tukey’s test in a statistical program, taking the p-value < 0.05 as the maximum level of statistical significance.
# RAW 264.7 macrophages = test: Cytotoxicity against RAW 264.7 macrophages (MTT); assay type: cell-based, murine; conditions: RAW 264.7 cells, 72 h
# Experimental: as §1, §2, §3, §4, §5
# [2] = tested on: L. (V.) braziliensis promastigotes; test: Antileishmanial activity on promastigotes (MTT, 72 h); assay type: cell-based, Leishmania (Viannia) braziliensis
# Experimental: Leishmania (Viannia) braziliensis (MHOM/BR/1975/M2903) was utilized in this study. The promastigote forms of these parasites were maintained in vitro in Schneider’s insect medium pH 7.2, supplemented with 20% fetal bovine serum (FBS) and 1% antibiotic solution (100 U/mL penicillin and 100 μg/mL streptomycin) at a temperature of 26 ± 1 °C in a Biochemical Oxygen Demand (BOD) incubator (Eletrolab EL202, São Paulo, Brazil), with regular aeration and weekly subculturing.
# (§6) Assessment of antileishmanial activity against promastigote and amastigote axenic forms of parasites followed the method described by Rodrigues et al. and involved the following steps: L. (V.) braziliensis parasites were cultured in 96-well plates at a concentration of 1 × 10^6 parasites per well. Each well contained 100 μL of supplemented Schneider medium. Serial concentrations of the test substances, ranging from 50 to 1.56 μmol/L, were prepared. Reference drugs, meglumine antimoniate (20 to 40,000 μmol/L) and amphotericin B (0.031 to 2 μmol/L) were also prepared. These concentrations were used to assess the effects of the test substances in comparison to reference drugs. The plates were incubated in a BOD incubator at 26 °C for 72 h. After the 72 h incubation period, 10 μL of MTT (5 mg/mL) was added to each well. The plates were then incubated for an additional 4 h. At the end of the 4 h incubation, formazan crystals formed by the reduction of the MTT salt were solubilized by adding 50 μL of a 10% (w/v) sodium dodecyl sulfate (SDS) solution in distilled water. Absorbance was measured using a microplate reader at a wavelength of 540 nm (Biosystems ELx800 model, Curitiba, PR, Brazil). This measurement quantified the metabolic activity of the parasites, which is indicative of their viability and proliferation. Schneider medium containing 0.2% DMSO was used as a negative control in the tests.
# as §5
# [3] = tested on: L. (V.) braziliensis axenic amastigotes; test: Antileishmanial activity on axenic amastigotes (MTT, 72 h); assay type: cell-based, Leishmania (Viannia) braziliensis
# Experimental: In vitro amastigogenesis was performed by transformation from promastigotes at the stationary phase of growth to obtention axenic amastigotes. This process involved altering the culture conditions to Schneider’s medium with a pH of 5.5, supplementing them with 5% FBS, and incubating them at a temperature of 32 °C [17].
# as §6
# [4] = tested on: L. (V.) braziliensis intramacrophage amastigotes; test: Treatment of RAW 264.7 macrophages infected with L. (V.) braziliensis (intramacrophage amastigotes); assay type: cell-based, Leishmania (Viannia) braziliensis; conditions: RAW 264.7 infected with L. (V.) braziliensis, 72 h of treatment
# Experimental: RAW 264.7 macrophages (1 × 10^6 cells/mL) were seeded in 24-well plates containing sterile glass slides, and approximately 500 μL of supplemented DMEM medium was added. The plates were then incubated at 37 °C with 5% CO2 for 4 h to facilitate cell adhesion. Following the adhesion period, promastigotes (1 × 10^7) in the stationary growth phase were introduced into the wells for infection. The plates were then incubated for an additional 4 h to allow infection to take place. Afterward, the medium was carefully removed, and the wells were washed three times with PBS to eliminate any nonadherent cells. Fresh medium containing serial concentrations of the test substances, ranging from 0.78 to 25 μmol/L, was added to the wells. Additionally, a range of concentrations of glucantime (25 to 800 μmol/L) was included for comparison. The treatment was carried out for 72 h in an incubator at 37 °C with 5% CO2. At the end of the 72 h treatment period, the glass lamina was removed from each well and stained using rapid panoptic stain (Laborklin®, Curitiba, Paraná, Brazil). The stained samples were mounted on permanent slides using Entelan® (Sigma-Aldrich, St. Louis, MO, USA), and antileishmanial activity was assessed by measuring the infection rate and counting the number of amastigotes per macrophage. Quantification was performed using light microscopy at a magnification of 1000×, and a total of 300 macrophages per lamina were evaluated. As a negative control, half DMEM containing 0.2% DMSO was used.
# right atrium = test: Chronotropic effect on isolated right atrium; parameters: species or system guinea pig; conditions: Cavia porcellus; isolated guinea pig right atrium, 3 to 100 µmol/L; read-out: EC50 reduction of heart rate activity
# Experimental: (§7) Guinea pigs of either sex weighing between 250 or 380 g were utilized in this study. The animals were housed in a controlled environment in an air-conditioned room, maintaining a temperature of 22 to 24 °C and a relative humidity of 50% to 60%. A 12 h light–dark cycle was maintained.
# (§8) On the day of the experiments, the animals were euthanized via cervical dislocation. The heart, aorta, pulmonary artery, and ileum were surgically removed and immersed in Krebs–Henseleit solution, with the following composition: NaCl 144.9 mM, KCl 4.73 mM, CaCl2 3.2 mM, MgSO4 1.18 mM, NaHCO3 24.9 mM, KH2PO4 1.18 mM, and glucose 10 mM, with the pH maintained at 7.2–7.4. This solution was continuously aerated with a mixture of 95% O2 and 5% CO2.
# (§9) Papillary muscles were isolated from the right ventricle of the heart and meticulously cleared of Purkinje fibers to prevent spontaneous activity. To ensure adequate oxygen supply, only muscles with a diameter less than 0.87 mm were used. The right atrium was also dissected for assessment of chronotropic activity. Both the aorta and pulmonary artery were cleaned and cut into 5 mm rings, while the ileum was sectioned into pieces measuring 1 to 2 cm.
# (§10) One end of the dissected tissues was securely tied with silver wire for attachment to a tissue holder, while the other end was connected to a force transducer (Transbridge™, 4-Channel Transducer Amplifier, World Precision Instruments, Sarasota, FL, USA). For contractile measurements, the terminal ileum was stimulated with 60 mM KCl, and the pulmonary artery and aorta rings were exposed to a 90 mM KCl solution. Papillary muscles were electrically stimulated using an Anapulse Stimulator Model 301-T and an Isolation Unit Model 305-1 (WPI, Hamden, CT, USA) with rectangular pulses of 3 ms duration at a frequency of 1 Hz. The amplitude of the stimulation pulse was maintained at 10% above the threshold level. To optimize contractility, a constant resting tension was applied throughout the experiment: 3.9 mN for papillary muscle, 4.9 mN for terminal ileum, 10.4 mN for the right atrium, and 19.6 mN for aorta and pulmonary artery rings.
# (§11) Following a 30 min control period, different concentrations of test compounds were cumulatively added to the bath solution every 45 min until a stable effect was achieved. The responses were recorded using a chart recorder (BD 112 Dual Channel, Kipp &Zonen, PO Box 507, 2624 BC, Delft, Holland) for subsequent evaluation. Stock concentrations of the test compounds were prepared using DMSO. To account for any potential DMSO effect, control experiments were conducted with the solvent alone, and the observed effects were subtracted from the responses elicited by the test compounds.
# aorta = test: Vasodilator effect on aortic rings (KCl contraction); conditions: Cavia porcellus; guinea pig aortic rings
# Experimental: as §7, §8
# as §9, with “Both the aorta and pulmonary artery were cleaned and cut into 5 mm rings, while the ileum was sectioned into pieces measuring 1 to 2 cm.” left out
# (§12) Following a 30 min control period, different concentrations of test compounds were cumulatively added to the bath solution every 45 min until a stable effect was achieved. The responses were recorded using a chart recorder (BD 112 Dual Channel, Kipp &Zonen, PO Box 507, 2624 BC, Delft, Holland) for subsequent evaluation. […]
# pulmonary artery = test: Vasodilator effect on pulmonary artery rings (KCl contraction); conditions: Cavia porcellus; guinea pig pulmonary artery rings
# Experimental: as §7, §8, §9
# One end of the dissected tissues was securely tied with silver wire for attachment to a tissue holder, while the other end was connected to a force transducer (Transbridge™, 4-Channel Transducer Amplifier, World Precision Instruments, Sarasota, FL, USA). For contractile measurements, the terminal ileum was stimulated with 60 mM KCl, and the pulmonary artery and aorta rings were exposed to a 90 mM KCl solution. […]
# as §12
# terminal ileum = test: Spasmolytic effect on terminal ileum (KCl contraction); conditions: guinea pig terminal ilea, KCl-induced contraction
# Experimental: as §7, §8, §9, §10, §11
Compound,CC50 at 72 h [1] [µM],CC50 (RAW 264.7 macrophages) [µM],IC50 ([2]; Leishmania braziliensis) [µM],EC50 [4] [µM],also measured
"C[C@@H]1[C@H](O)[C@@H](C)/C=C/C=C/C=C/C=C/C=C/C=C/C=C/[C@H](O[C@@H]2O[C@H](C)[C@@H](O)[C@H](N)[C@@H]2O)C[C@@H]2O[C@](O)(C[C@@H](O)C[C@@H](O)[C@H](O)CC[C@@H](O)C[C@@H](O)CC(=O)O[C@H]1C)C[C@H](O)[C@H]2C(=O)O [Amphotericin B, reference compound]",0.55,0.5 ± 0.1,0.3 ± 0.01,0.3 ± 0.02,"EC50 ([3]; Leishmania braziliensis): 0.4 µM; EC50 ([4]; Leishmania braziliensis, RAW264.7, 72 h): 0.35 µM"
O=C(/N=C(/NCc1ccccc1)Nc1ccccc1Br)c1ccccc1 [LQOF-G35],232 ± 3.5,–,25.9 ± 1.6,–,–
O=C(/N=C(/NCc1ccccc1)Nc1cccc(Br)c1)c1ccccc1 [LQOF-G36],–,–,> 50,–,EC50 (right atrium): 38 µM; EC50 (aorta): 29 µM; EC50 (pulmonary artery): 23.5 µM; spasmolytic effect / contraction force in the terminal ileum (terminal ileum): decrease in contraction force; also recorded: spasmolytic effect
"Meglumine antimoniate [Meglumine At, reference compound]",–,846 ± 13,–,452 ± 14.3,IC50 [2]: 19300 µM; EC50 [3]: 2170 µM; EC50 ([4]; listed as Meglumine antimoniate): 452 µM
